Measurements published in patent US20050074777A1, “Novel cell-surface estrogen receptor and related compositions and methods” (priority 2002, published 2005).

Tests used:
[1] = molecular target: ER-X (plasma-membrane estrogen binding site of P7 ERKO and wild-type neocortex); assay: 3H-estradiol saturation binding to Percoll-purified neocortical plasma-membranes; design: species or system mouse; details: Percoll-purified plasma-membranes from P7 ERKO and wild-type neocortex, 50 μg/tube, 18 hours at 4° C.; read-out: equilibrium dissociation constant, Kd
Protocol: Binding of ^3H estradiol to Percoll®-purified plasma-membranes from P7 ERKO and wild-type mouse neocortex. (a) Identical amounts of membrane protein (50 μg/tube) were incubated with varying concentrations of ^3H estradiol (0.3-8 nM) for 18 hours at 4° C. The reaction was terminated by addition of hydroxylapatite (HAP). The membranes and HAP were sedimented by centrifugation in a microfuge, and the pellet washed 4 times to remove free steroid. Radioactivity in the pellets was extracted with ethanol and counted. […] (b) Specificity of the binding site in Percoll®-purified membranes from P7 ERKO mouse neocortex. […] Bound ^3H estradiol was separated by sedimentation with HAP and counted at an efficiency of 50%. Data represent the number of bound counts (after subtraction of HAP-only blank control tubes, containing no membrane protein) expressed as the means +/-S.D. of triplicate determinations. The horizontal dashed line indicates the level of non-specific binding observed in the presence of 1 μM DES. Caveolar-like membrane (CLM) preparation. Membrane fractions were prepared by adapting the detergent-free method of Smart et al. (Smart, 1995). […] The ethanol supernatants were transferred to liquid scintillation fluid (5 ml) and counted. […] Specific binding was calculated by subtracting non-specific from total binding.

[2] = tested on: estrogen-binding protein (ER-X); assay: DES-sensitive 3H-estradiol binding in CLM preparations and lysates; design: species or system mouse
Protocol: Caveolar-like membrane (CLM) preparation. Membrane fractions were prepared by adapting the detergent-free method of Smart et al. (Smart, 1995). Briefly, pools of 40-50 P7 ERKO neocortices were homogenized in 20 mM Tricine, pH 7.8 buffer, containing 1 mM EDTA, 0.25M sucrose and 1 mM dithiothreitol (TESD buffer), then centrifuged at 1000×g at 4° C. for 10 minutes. The pellet was resuspended in TESD buffer, re-centrifuged, and the supernatants pooled. The combined supernatants were subjected to Percoll® gradient fractionation in the same buffer to isolate the plasma membrane fraction. In some binding experiments (indicated below), Percoll® purified plasma membranes were used without further fractionation. For preparation of CLMs, plasma-membranes were sonicated and further separated by centrifugation on a linear 20% to 10% OptiPrep (iodixanol) gradient (Nycomed Pharma AS, Oslo, Norway). Based upon their light buoyant density, CLMs were separated and purified from non-CLMs using two OptiPrep density gradients. […] Electrophoretically separated CLMs on PVDF membranes were probed with antibodies specific for ER-α ([…], UBI; MC20, Santa Cruz), ER-β (Zymed), flotillin (BD Transduction Labs) and other caveolar-resident proteins (PKC-α and PKC-γ, BD Transduction Labs) and non-caveolar-resident proteins (paxillin, BD Transduction Labs). Estrogen binding assay. Duplicate aliquots of 1 mg each of protein lysate from ERKO P7 neocortex or wild-type adult uterus were pre-cleared for 30 minutes using anti-rabbit-IgG-coated magnetic beads (Dynal AS). Pre-cleared protein lysates were immunoprecipitated with anti-ER-α antibodies (6F11, Novocastra; or MC20, Santa Cruz) at 4° C. overnight. […] NEN Life Sciences, Boston, Mass.) at 4° C. for 18 hours. The incubation was terminated by adsorption of the binding sites onto an equal volume of hydroxylapatite (HAP) slurry in TESD buffer. HAP pellets were washed four times with Tris-buffered saline containing 0.2% Tween-20 buffer and extracted with 1 ml absolute ethanol overnight at room temperature. The ethanol supernatants were transferred to liquid scintillation fluid (5 ml) and counted. Control tubes, used in assessing HAP adsorption of free steroid, contained HAP and the same buffer constituents, without addition of the membranes. Non-specific binding was assayed in the membranes using the same amount of radioactive ligand plus 200-fold molar excess of unlabeled diethylstilbestrol (DES) (Sigma-Aldrich). Specific binding was calculated by subtracting non-specific from total binding.

## C[C@]12CC[C@@H]3c4ccc(O)cc4CC[C@H]3[C@@H]1CC[C@@H]2O [^3H-estradiol, 2,4,6,7, 16, 17-^3H estradiol]
[1]
  Kd: ~1.6 nM
[2]; P7 ERKO neocortical lysates
  DES-sensitive estrogen binding: 9.94 fmol/mg lysate protein
[2]; neocortical CLM preparations from P7 ERKO mice, 10 nM 3H-estradiol
  DES-sensitive estrogen binding: 282.12 fmol/mg CLM protein
[2]; wild-type adult uterine lysates
  DES-sensitive estrogen binding: 38.85 fmol/mg lysate protein
